Experimental data taken from paper PMC3700763, “First human dose-escalation study with remogliflozin etabonate, a selective inhibitor of the sodium-glucose transporter 2 (SGLT2), in healthy subjects and in subjects with type 2 diabetes mellitus” (BMC Pharmacology & Toxicology, 2013).
Where two headings read alike, the source gives them in different places.

Key:
Type in all cases: in vivo, human
[1] = Plasma glucose, insulin and intact GLP-1 after 50 g OGTT, T2DM subjects; details: for median baseline adjusted AUC(0–4) for plasma GLP-1 following an OGTT: placebo 6.36
Protocol: All subjects were admitted to the unit two nights prior to receiving study drug to establish baseline safety parameters and fluid intake levels over a 36 h period. Subjects remained in the unit for at least 24 h after doses were administered for monitoring of clinical laboratory parameters exploratory biomarkers, vital signs, ECGs and adverse events. While confined to the clinical research unit, all subjects received meals standardized with respect to calories, fat, protein, carbohydrate, and sodium content; however, detailed dietary information was not captured in this study. In Part A, subjects were dosed following an overnight fast; lunch and dinner were provided at 4 and 10 h after dosing, respectively. Fifteen minutes after dosing in each treatment period in Part B, a fasting OGTT was performed using 50 g glucose (administered as 50 g Glucola™). A 50 g glucose load was chosen since the OGTT was being performed in subjects already known to have diabetes. The glucose drink was consumed by subjects within approximately 5 minutes. Blood samples for the measurement of glucose, insulin, and intact glucagon-like peptide 1 (GLP-1) were collected for 24 hours following dose administration. Provided that there were no safety or tolerability concerns, subjects were released from the clinic on day 2 of each treatment period until their return for the next treatment or follow-up period. Each subject was involved in the study for approximately 8 weeks (from screening to follow-up).
(§1) Blood samples for glucose were taken at 0 (pre-dose), and 1, 2, 4, 8 and 12 h after dosing in each treatment period (Part A). For Part B, blood samples for glucose, insulin and GLP-1 were taken at check-in on day -2, and at 0 h (pre-dose), and 0.5, 1, 1.5, 2, 4 h (prior to lunch), 4.5, 5, 6, 8, 10, 12 and 24 h after dosing on day 1 of each treatment period.
(§2) For glucose, plasma was analyzed using a YSI 2300 Glucose Analyzer (Yellow Springs International Life Sciences, Yellow Springs, OH, USA). For insulin, plasma was rapidly prepared and frozen at -70°C until analyzed by LabCorp (San Diego, CA, USA) using a chemiluminescent immunometric assay method (Siemen’s Immulite 2000 analyzer with Immulite Insulin Kit L2KIN2).
For assay of intact GLP-1, blood was collected into a chilled EDTA tube and protease inhibitors (DPP4 inhibitor obtained from EMD Millipore, St. Charles, MO) were immediately added. Samples were then spun down and plasma split into two separate tubes and frozen at -70°C until analyzed by Pathway Diagnostics (Malibu, CA, USA) by ELISA (kit # EGLP-35 K, EMD Millipore). The lowest level of intact GLP-1 this assay can detect is 2 pM (with a minimum plasma sample size of 0.4 mL).

[2] = Plasma pharmacokinetics, healthy subjects; details: human; for Cmax: read-out: Cmax; for AUC(0-inf): read-out: AUC(0–∞)
Protocol: Ten healthy subjects were evaluated in 5 study sessions, each separated by approximately 2 weeks. At each study session, subjects received either an oral dose of remogliflozin etabonate or placebo after an overnight fast. Remogliflozin etabonate doses were 20 mg, 50 mg, 150 mg, 500 mg and 1000 mg. Over the course of participation in the study, each subject received 4 of the 5 active remogliflozin etabonate doses and 1 dose of placebo (4:1 active to placebo ratio per treatment period). The available safety and PK results from each dosing period were evaluated before proceeding to the next dose level. On each dosing day, a series of 2.0 mL blood samples were collected at pre-dose and 10, 20, 30 and 45 min, and 1, 1.25, 1.5, 2, 2.5, 3, 4, 6, 8, 12, 16, and 24 h post-dose for the determination of remogliflozin etabonate, remogliflozin and GSK279782 in plasma by using high-performance liquid chromatography with tandem mass spectrometry (MS/MS) as described. Non-compartmental PK analysis of plasma concentration–time data was performed using WinNonlin Version 4.1 (Pharsight Corporation, Mountainview, CA, USA). The Cmax and Tmax were obtained directly from the data. Areas under the plasma concentration–time curves from time zero to the last quantifiable time point (AUC[0–last]) and extrapolated to infinity (AUC[0–∞]) were calculated using the log-linear trapezoidal method. The terminal plasma elimination rate-constant (λz) was estimated from log-linear regression analysis of the terminal phase of the plasma concentration–time curve, and the T½ was calculated as T½ = ln2/λz. Ratios of AUC(0–∞) remogliflozin to AUC(0–last) remogliflozin etabonate were calculated including molecular weight corrections. Safety and pharmacodynamic data were summarized using descriptive statistics. This was a small exploratory study and no formal hypothesis-testing was conducted. Dose proportionality with respect to Cmax, and AUC was assessed using the power model y = α dose^β, where y = Cmax or AUC, and α denotes a random subject effect. The exponent β in the power model will be estimated by regressing the loge-transformed PK parameters on loge dose, i.e. ln(PK parameter) = ln(α) + β * ln(dose). Dose proportionality implied that β = 1 and was assessed by estimating β and its corresponding 90% confidence interval. The power model was fitted by restricted maximum likelihood using SAS Proc Mixed.

[3] = Plasma glucose, healthy subjects; details: mean, very similar between placebo and remogliflozin etabonate periods
Protocol: as §1, §2

[4] = plasma prodrug, healthy subjects, 50 mg oral dose, geometric mean (CV%)
[5] = plasma prodrug, healthy subjects, 150 mg oral dose, geometric mean (CV%)
[6] = plasma prodrug, healthy subjects, 500 mg oral dose, geometric mean (CV%)
[7] = plasma prodrug, healthy subjects, 1000 mg oral dose, geometric mean (CV%)

## CCOC(=O)OC[C@H]1O[C@@H](Oc2nn(C(C)C)c(C)c2Cc2ccc(OC(C)C)cc2)[C@H](O)[C@@H](O)[C@@H]1O [Remogliflozin etabonate, remogliflozin etabonate]
[1]; 50 mg RE vs placebo, altered little from 50 mg to 500 mg
  Increases in plasma glucose following an OGTT: clearly attenuated
[1]; 50 mg
  median baseline adjusted AUC(0–4) for plasma GLP-1 following an OGTT: -8.85 pM·h
[1]; 500 mg
  median baseline adjusted AUC(0–4) for plasma GLP-1 following an OGTT: -1.95 pM·h
[1]; 50 and 500 mg
  Plasma insulin following the glucose load: no clear trends
[2]; plasma, oral, both populations, independent of dose (abstract), read-out: mean plasma T½
  half-life: ~25 min
[2]; plasma, oral, healthy subjects, 20-1000 mg, read-out: median Tmax estimates, range across doses
  Tmax: 31.2 to 75 min
[2]; plasma, oral, healthy subjects, 20-1000 mg, read-out: median T½ estimates, range across doses
  half-life: 15.6 to 42.6 min
[2]; plasma, po, 50 mg, plasma prodrug, healthy subjects, 50 mg oral dose, geometric mean (CV%), n = 6, read-out: T½ (converted)
  half-life: 21.2 min
[2]; plasma, po, 150 mg, plasma prodrug, healthy subjects, 150 mg oral dose, geometric mean (CV%), n = 6, read-out: T½ (converted)
  half-life: 15.4 min
[2]; plasma, po, 500 mg, plasma prodrug, healthy subjects, 500 mg oral dose, geometric mean (CV% 27), n = 4, read-out: T½ (converted)
  half-life: 15.8 min
[2]; plasma, po, 1000 mg, plasma prodrug, healthy subjects, 1000 mg oral dose, geometric mean (CV% 56), n = 7, read-out: T½ (converted)
  half-life: 42.4 min
[2]; plasma prodrug, healthy subjects, 20 mg oral dose, geometric mean (CV%), n = 5
  AUC(0-t): 1.61 ng·h/mL
[2]; plasma prodrug, healthy subjects, 20 mg oral dose, geometric mean (CV%)
  Cmax: 1.89 ng/mL
[2]; plasma prodrug, healthy subjects, 20 mg oral dose, median, read-out: Tmax
  Tmax: 37.5 min
[2]; [4]
  AUC(0-t): 3.56 ng·h/mL
  Cmax: 4.98 ng/mL
[2]; plasma prodrug, healthy subjects, 50 mg oral dose, geometric mean (CV%), n = 6
  AUC(0-inf): 3.7 ng·h/mL
[2]; plasma prodrug, healthy subjects, 50 mg oral dose, median, read-out: Tmax
  Tmax: 37.5 min
[2]; [5]
  AUC(0-t): 9.51 ng·h/mL
  Cmax: 17.6 ng/mL
[2]; plasma prodrug, healthy subjects, 150 mg oral dose, geometric mean (CV%), n = 6
  AUC(0-inf): 9.77 ng·h/mL
[2]; plasma prodrug, healthy subjects, 150 mg oral dose, median, read-out: Tmax
  Tmax: 30.9 min
[2]; [6]
  AUC(0-t): 35.4 ng·h/mL
  Cmax: 41.6 ng/mL
[2]; plasma prodrug, healthy subjects, 500 mg oral dose, geometric mean (CV%), n = 4
  AUC(0-inf): 36.8 ng·h/mL
[2]; plasma prodrug, healthy subjects, 500 mg oral dose, median, read-out: Tmax
  Tmax: 75 min
[2]; [7]
  AUC(0-t): 107 ng·h/mL
  Cmax: 144 ng/mL
[2]; plasma prodrug, healthy subjects, 1000 mg oral dose, geometric mean (CV%), n = 7
  AUC(0-inf): 126 ng·h/mL
[2]; plasma prodrug, healthy subjects, 1000 mg oral dose, median, read-out: Tmax
  Tmax: 37.5 min
[3]
  Plasma glucose AUC 0–4 h: approximately 18 mmol•h/L
  Plasma glucose AUC 0–12 h: 55 to 59 mmol·h/L
